According to patent US20130028959A1, “Liposomes for Preventing the Spread of HIV” (Massachusetts Institute of Technology, priority 2009, published 2013):

Test: Surface charge of lipids used to make liposomes
Type: physicochemical
Settings: lipid used to make liposomes

In the case of “Phosphatidylcholine [Phosphatidylcholine (PC)]”, the Relative charge is reported as “No”.
